Test: Distribution in brain after ip administration
Format: in vivo, rat
Conditions: for Tmax / concentration at 5 min / concentration at 15 min / concentration at 30 min / concentration at 60 min / concentration at 120 min / concentration at 240 min: male, Wistar, rat, brain; for concentration at 5 min / concentration at 15 min / concentration at 30 min / concentration at 60 min / concentration at 120 min / concentration at 240 min: intraperitoneal, mean; for concentration at 5 min: 5 min after administration; for concentration at 15 min: 15 min after administration; for concentration at 30 min: 30 min after administration; for concentration at 60 min: 60 min after administration; for concentration at 120 min: 120 min after administration; for concentration at 240 min: 240 min after administration; for Penetration into the brain: summary table
Procedure: For the pharmacokinetic study, a group of 56 adult male rats (Wistar, 220–250 g, […]) were used in the experiment. Animals were purchased from the Animal House of the Faculty of Pharmacy of Jagiellonian University Medical College, Krakow, Poland. […] These were then given through an intraperitoneally injections (ip) at a dose of 0.3 mg/kg and 0.4 mg/kg, respectively. Blood samples were collected at 0 min (predose), 5 min, 15 min, 30 min, 60 min, 120 min, and 240 min after compound administration. Blood and brain samples were collected under general anesthesia induced by ip injections of 50 mg/kg ketamine plus 8 mg/kg xylazine. Blood samples were taken in heparinized tubes and immediately centrifuged at 3500 rpm for 10 min, and plasma was collected. Brain and plasma samples were immediately frozen at – 80 ℃ for LC/MS/MS analysis. All experimental procedures were carried out according to EU Directive 2010/63/EU and approved by the I Local Ethics Committee for Animal Experiments of the Jagiellonian University in Krakow, Poland (No. 94/2016).
The pharmacokinetic parameters were calculated using a non-compartmental approach from the average concentration values, using Phoenix WinNonlin software (Certara, Princeton, NJ 08540 USA). The first-order elimination rate constant (λz) was calculated by linear regression of time versus log concentration. Next, the area under the mean plasma and the concentration in the brain versus the time curve (AUC0→t) were estimated using the log-linear trapezoidal rule (Eq. 1), where Cn is the concentration of the last sampling of each compound1 AUC0→t=∑i=1n(Ci+Ci+1)/2·ti+1-ti+Cn/λz.
The quantification of compounds in plasma and brain samples was performed using the Sciex API 3200 triple quadrupole mass spectrometer (Concord, Ontario, Canada) equipped with an electrospray (ESI) ionization interface. This instrument was coupled to an Elite LaChrom (Hitachi, USA) HPLC system. Data acquisition and processing were performed using Sciex Analyst 1.5.2 data collection and integration software. After preparation, the samples were injected (20 µL) onto XBridge C18 (2.1 mm × 30 mm, 3.5 μm, Waters, Milford, Massachusetts, USA) analytical column. The mobile phase consisted of 0.1% formic acid in acetonitrile (A) and 0.1% formic acid in water (B) was delivered in a gradient elution starting with 90% of eluent B, increasing for 2 min to 90% of eluent A, maintained for 3 min, and then returned for 5 min to 90% of eluent B, and maintained 90% of eluent B during 5 min at a flow rate of 300 µL/min. The total analysis time was 10 min. […] The ion spray source settings were as follows: spray voltage: 5.5 kV, heater temperature: 400 °C, curtain gas: 10 psi, source gas 1: 20 psi, and source gas 2: 20 psi.
Further dilutions were performed using the same solvent to prepare working standard solutions of the analyte at the following concentrations: 0.025, 0.05, 0.1, 0.25, 0.5, 1.0, 2.5, 5.0, 10, 25, and 50 µg/mL for calibration curve samples (CC) and 0.025, 0.075, 2.2, and 4.5 µg/mL for quality control samples (QC). To prepare samples for calibration curve or quality control samples, 45 µL of the matrix (plasma or brain homogenate) was added with 5 µL of internal standard solution (1 µg/mL) obtaining the final concentration of 100 ng/mL and 5 µL of standard working solutions at the needed CC or QC concentration levels. After the addition of the standard solution, the samples were mixed and purified.
A sample volume of 50 µL of plasma or brain homogenate was transferred to the clean Eppendorf tube and spiked with 5 µL of IS solution (1 µg/mL) obtaining the final concentration of 100 ng/mL. After 5 min of mixing (1500 rpm) proteins were precipitated using 200 µL ACN. After 10 min of sample shaking (1500 rpm), the incubation step was performed (10 min, 4 °C). The samples were then centrifuged (10,000 rpm, 10 min, 4 °C) and the supernatant was transferred to chromatographic vials for LC/MS/MS analysis.

[1] = rat brain, ip, Guanabenz 0.3 mg/kg, 4-OH-Guanabenz 0.4 mg/kg

Row | Compound | Tmax (ip) [h] | concentration at 5 min [ng/g] | concentration at 15 min [ng/g] | concentration at 30 min [ng/g] | concentration at 60 min [ng/g] | concentration at 120 min [ng/g] | concentration at 240 min [ng/g] | AUC0→t [1] [ng ⋅ min/g] | t0.5 [1] [min] | Penetration into the brain | Tmax (ip, 0.3 mg/kg) [h]
1 | Cl.N=C(N)NN=Cc1c(Cl)cc(O)cc1Cl [4-OH-Guanabenz, 2-[(2,6-Dichloro-4-hydroxyphenyl)methylene]hydrazinecarboximidamide Hydrochloride] | 0.25 | 13.3 | 64.5 | 23.9 | 4.54 | 3.94 | 3.2 | 2573 | 112.7 | Poor | 
2 | N=C(N)N/N=C/c1c(Cl)cccc1Cl [Guanabenz] | 1 | 45.6 | 110 | 164 | 183 | 92.5 | 58.6 |  | 116.1 | Good | ≤ 1

Source: article PMC10539439 (Pharmacological Reports, 2023)
